The values below come from US6890969B2, “Polymer emulsion preservation using cationic compounds” (Air Products Polymers, L.P., priority 2000, dated 2005).

Where two headings read alike, the source gives them in different places.

In one experiment the test system is GABL. Kind of experiment: GABL biochallenge test of preserved polymer emulsions (streak plate / RABIT), inoculations passed. In kind it is cell-based, Gluconoacetobacter liquefaciens. The following applies: for Inoculations Passed: PVOH-stabilized VAE emulsion, Tg 0 °C, <1000 ppm vinyl acetate; for preservative quality against GABL compared with cationic compounds (in words): common industrial biocides, CIT/MIT limited to 50 ppm, DBNPA to 100 ppm; for efficacy against GABL (in words): even at doses of 450 and 500 ppm; for preservative efficacy against GABL (in words): dosages similar to 200 ppm, failing immediately after the initial GABL inoculation. The method, then:
GABL Inoculum Preparation
A recently isolated culture of GABL was grown on potato dextrose agar slants by inoculating the agar surface. The potato dextrose agar slants were incubated for 48-72 hours at 25° C. After this incubation period, GABL cells were harvested using quarter strength Ringers solution to wash the GABL colonies off of the agar surface. The washings from each slant were combined into one sterile, Erlenmeyer flask. The number of slants and the amount of quarter strength Ringers solution used to wash off the GABL colonies was adjusted during the procedure to obtain a final microbial viable count in the range of 10^8-10^10 CFU/mL.
Rapid Automated Bacterial Impedance Technique (RABIT): supplied by Microbiology International, manufactured by Don Whitley Scientific, Ltd.
RABIT utilizes the principal of impedance microbiology to detect and assess microbial activity in a given sample. Using the RABIT, microbial metabolism is monitored by measuring the amount of carbon dioxide produced by actively respiring microorganisms. The electrodes in the RABIT test cells are partially covered with alkaline agar containing potassium hydroxide. As inoculated test samples are monitored on the RABIT, carbon dioxide produced from microbial metabolism is absorbed by the alkaline agar resulting in a change in conductivity. Conductivity is monitored with time and the time to reach a pre-specified rate of reduction in conductivity is termed the time to detection (TTD). Therefore, the shorter the TTD, the higher the number of microorganisms present. Failure can be defined as three successive decreases in conductivity equal to or greater than a pre-specified value (−10 microSiemens is recommended by the manufacturer) at any time during the 72 hour RABIT monitoring period. Alternatively, failure can be defined as a pre-specified total change in conductivity.
Biochallenge Test Procedure
Samples (50 g each) of each test emulsion containing a test antimicrobial agent were inoculated with 1.0 mL of the GABL inoculum. After mixing well, the samples were then placed in a 30° C. incubator. After 1, 2, and 6 days of incubation each sample was streak plated onto potato dextrose agar to assess the level of surviving GABL microorganisms. The potato dextrose agar plates were incubated at 25° C. for 48-72 hours before assessing the growth. On the seventh day of incubation, each test emulsion sample was inoculated again with a freshly prepared GABL inoculum, mixed well, then placed back into the incubator. The samples were again streak plated onto potato dextrose agar after incubating for 1, 2, and 6 days since the second inoculation. On the fourteenth day after the test was initiated, the test emulsions were inoculated a third time with another freshly prepared GABL inoculum and then placed back into the incubator. The samples were again streak plated onto potato dextrose agar after 1, 2, 6, and 13 days of incubation since the third inoculation to assess surviving microorganisms. Test failure is defined as a microbial viable count >300 CFU/10 μL observed from the potato dextrose agar streak plate assessments.
Biochallenge Test Procedure Via the RABIT
A small amount of a microbial nutrient was added to each emulsion test sample (50 g) containing a test antimicrobial agent. The resulting samples were then inoculated with 1.0 mL of the GABL inoculum. After mixing well, an aliquot (5 g) of each test sample was placed into separate RABIT indirect conductivity tubes. The indirect conductivity tubes were then placed into the RABIT incubator modules set at 30° C. and the conductivity changes monitored for up to 72 hours. The remainder of each test sample was stored in a 30° C. incubator during the RABIT monitoring period. At the completion of the RABIT monitoring period, the aliquot samples were placed back into their respective sample containers. Each test sample was then re-inoculated with a freshly prepared GABL inoculum. […]

The next experiment relates to mixed bacterial pool. The format is cell-based. The conditions noted are these: PVOH-stabilized VAE emulsion Tg 0, <1000 ppm vinyl acetate. The procedure:
The preservative efficacy of several cationic compounds in a poly(vinyl alcohol)-stabilized VAE copolymer emulsion (Tg=0) containing less than 1000 ppm vinyl acetate was assessed according to the following procedure:
Aeromonas hydrophilia, Alcaligenes faecalis, Corynebacterium ammoniagenes, Enterobacter aerogenes, Escherichia coli, Klebsiella pneumoniae, Pseudomonas aeruginosa, Proteus vulgaris, Providencia rettgeri, Pseudomonas stutzeri, Shewanella putrefaciens, Serratia liquefaciens, Acinetobacter baumannii, Burkholderia cepacia, Chryseobacterium meningosepticum, Sphingobacterium spiritivorum, Ralstonia pickettii, and GABL.
Mixed Bacterial Pool Inoculum Preparation
Each bacterial culture was individually grown on nutrient agar slants, except GABL was grown on potato dextrose agar slants, by inoculating the agar surfaces. The nutrient agar slants were incubated for 24-48 hours at 30° C. and the potato dextrose agar slants were incubated for 48-72 hours at 25° C. After this incubation period, the cells were harvested using quarter strength Ringers solution to wash the bacterial colonies off the agar surface. The washings from all of the slants were combined into one sterile, Erlenmeyer flask. The number of slants and the amount of Ringers Solution used to wash off the bacterial colonies is adjusted during the procedure to obtain a final mixed microbial viable count in the range of 10^8-10^10 CFU/mL.
Bacterial Biochallenge Test Procedure
The RABIT procedures were followed as described in Example 1, except the mixed bacterial pool inoculum was used to inoculate the test samples instead of the GABL inoculum.

`N#CC(Br)(Br)C(N)=O` [DBNPA, 2,2-dibromo-3-nitrilo-propionamide, reference compound]: the “Inoculations Passed” value in the experiment on GABL (biocide dosage 100 ppm active) came to 0. Further, in the experiment on GABL, the “preservative quality against GABL compared with cationic compounds (in words)” value is given as “inferior preservatives” and the “efficacy against GABL (in words)” value was “ineffective”.

With `N#CCCC(Br)(C#N)CBr` (stereo not shown) [DBDCB, 1,2-dibromo-2,4-dicyanobutane, reference compound], in the experiment with GABL (biocide dosage 450 ppm active), the “Inoculations Passed” value amounted to 0. Moreover, in the experiment on GABL, the “preservative quality against GABL compared with cationic compounds (in words)” value was “inferior preservatives” and the “efficacy against GABL (in words)” value is recorded as “ineffective”.

As to `NCC(=O)O` [Glycine], the “Inoculations Passed” value with GABL (biocide dosage 500 ppm active) was 0.

On to `[H]/N=C(\N/C(=N/[H])NCCCCCCNC(=N)NC(=N)Nc1ccc(Cl)cc1)Nc1ccc(Cl)cc1` [chlorhexidine, reference compound], for which the “preservative efficacy against GABL (in words)” value in the experiment with GABL is “ineffective”.

Take `O=CCCCC=O` [Glutaraldehyde, reference compound]: in the experiment with GABL (biocide dosage 500 ppm active), the “Inoculations Passed” value was 0. In the experiment on GABL, the “preservative quality against GABL compared with cationic compounds (in words)” value is on record as “inferior preservatives” and the “efficacy against GABL (in words)” value is reported as “ineffective”.

For the compound `N=C(NCCCCCCNC(=N)NC(=N)Nc1ccc(Cl)cc1)NC(=N)Nc1ccc(Cl)cc1.O=C(O)[C@H](O)[C@@H](O)[C@H](O)[C@H](O)CO.O=C(O)[C@H](O)[C@@H](O)[C@H](O)[C@H](O)CO` [Chlorhexidine digluconate, reference compound], the “Inoculations Passed” value in the experiment with GABL (biocide dosage 250 ppm active) came out at 0.

Take `CC(=O)O.CC(=O)O.NC(=N\CCCCCC/N=C(N)/N=C(\N)Nc1ccc(Cl)cc1)/N=C(\N)Nc1ccc(Cl)cc1` [Chlorhexidine diacetate, reference compound]: in the experiment on GABL (biocide dosage 400 ppm active), the “Inoculations Passed” value was determined as 0.

For Benzalkonium chloride [TPI ® 1717], the “Inoculations Passed” value in the experiment on GABL (biocide dosage 200 ppm active) and in the experiment with GABL (biocide dosage 300 ppm active) was 0 in each case.

Turning to `CC(C)[C@H](N)C(=O)O` [Valine], the “Inoculations Passed” value with GABL (biocide dosage 1000 ppm active) is listed as 0.

For `CCCCCCCCCCCCCCCC[n+]1ccccc1` [CPC, cetylpyridinium chloride, reference compound], the “Inoculations Passed” value in the experiment on mixed bacterial pool (active biocide dosage 300 ppm) is listed as 5; with mixed bacterial pool (active biocide dosage 400 ppm), 7; in the experiment with GABL (biocide dosage 100 ppm active), 0; in the experiment with GABL (biocide dosage 250 ppm active), 2; with GABL (biocide dosage 300 ppm active), 5.

As to “Tetrakis(hydroxymethyl) phosphonium sulfate [Tolcide ® PS]”, in the experiment with GABL (biocide dosage 500 ppm active), the “Inoculations Passed” value was found to be 0.

Consider `CCCCCCCCCC[N+](C)(C)CCCCCCCCCC.[Cl-]` [BTC ® 1010, Didecyldimethylammonium chloride], for which the “Inoculations Passed” value in the experiment with GABL (biocide dosage 200 ppm active, listed as BTC 1010) is reported as 3.

Consider `CCCCCCCCCCCCCCCC[N+](C)(C)C.[Br-]` [CTAB, cetyltrimethylammonium bromide], for which the “Inoculations Passed” value in the experiment with GABL (biocide dosage 300 ppm active) was found to be 1. In the experiment with GABL, the “preservative efficacy against GABL (in words)” value was “ineffective”.

`CCCCCCCCCC[N+](C)(C)CCCCCCCCCC.[Cl-]` [TPI ® 1716, Didecyldimethylammonium chloride]: the “Inoculations Passed” value is listed as 0 in the experiment on GABL (biocide dosage 100 ppm active); 2 with GABL (biocide dosage 200 ppm active, listed as TPI 1716); “≧5” with GABL (biocide dosage 300 ppm active).
